Source: ChEMBL document CHEMBL5053523, “Design, synthesis, and structure-activity relationship of PD-1/PD-L1 inhibitors with a benzo[d]isoxazole scaffold” (Bioorg Med Chem Lett, 2021)

molecular target: T1, Programmed cell death protein 1/Programmed cell death 1 ligand 1 (Homo sapiens, UniProt Q15116+Q9NZQ7); test: Inhibition of PD-1/PDL1 protein-protein interaction (unknown origin); type: protein-complex assay
T1 sequence (Q15116 whole entry): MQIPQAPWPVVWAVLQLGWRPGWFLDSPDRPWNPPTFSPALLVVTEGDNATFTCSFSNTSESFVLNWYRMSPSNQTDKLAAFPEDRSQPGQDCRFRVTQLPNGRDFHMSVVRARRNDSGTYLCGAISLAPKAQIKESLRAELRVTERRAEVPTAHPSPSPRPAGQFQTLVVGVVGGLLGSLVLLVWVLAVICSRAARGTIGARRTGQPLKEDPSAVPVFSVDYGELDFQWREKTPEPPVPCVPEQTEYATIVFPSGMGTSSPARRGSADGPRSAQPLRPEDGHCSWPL
T1 sequence (Q9NZQ7 whole entry): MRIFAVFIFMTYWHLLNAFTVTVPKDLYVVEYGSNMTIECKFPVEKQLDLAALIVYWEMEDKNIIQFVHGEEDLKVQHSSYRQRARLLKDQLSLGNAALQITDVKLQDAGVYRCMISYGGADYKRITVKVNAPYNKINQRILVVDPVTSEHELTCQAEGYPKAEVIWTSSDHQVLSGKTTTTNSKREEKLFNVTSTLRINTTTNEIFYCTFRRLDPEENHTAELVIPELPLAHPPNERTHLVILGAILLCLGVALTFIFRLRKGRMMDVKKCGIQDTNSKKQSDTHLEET

Row | SMILES | IC50
1 | Cc1c(/C=C/c2c(Cl)cc(CNC(C)(CO)C(=O)O)cc2C(F)(F)F)cccc1-c1ccc2c(c1)OCCO2 (stereo unspecified) | 0.018 µM
2 | Cc1c(NC(=O)c2cccc(CNCCO)n2)cccc1-c1ccccc1 | ≤ 0.01 µM
3 | N#Cc1cncc(COc2cc(OC3CCc4c(-c5ccccc5)cccc43)c(Cl)cc2CN[C@@H](CO)C(=O)O)c1 (stereo partly specified) | < 0.1 µM

molecular target: T1, Programmed cell death protein 1/Programmed cell death 1 ligand 1; test: Inhibition of PD-1/PDL1 protein-protein interaction (unknown origin) by HTRF assay; type: protein-complex assay

Row | SMILES | IC50
4 | CC(=O)NCCNCc1ccc2onc(Nc3cccc(-c4ccc5c(c4)OCCO5)c3Cl)c2c1 | 0.438 µM
5 | CC(=O)NCCNCc1ccc2onc(Nc3cccc(-c4ccccc4)c3Cl)c2c1 | 0.193 µM
6 | OC1CCN(Cc2ccc3onc(Nc4cccc(-c5ccccc5)c4Cl)c3c2)C1 (racemic) | 0.464 µM
7 | OC1CCN(Cc2ccc3c(Nc4cccc(-c5ccccc5)c4Cl)noc3c2)C1 (racemic) | 1.49 µM
8 | O=C(O)C1CCCN(Cc2ccc3onc(Nc4cccc(-c5ccccc5)c4Cl)c3c2)C1 (racemic) | 0.0928 µM
9 | O=C(O)[C@H](CO)NCc1ccc2c(Nc3cccc(-c4ccccc4)c3Cl)noc2c1 | 2.39 µM
10 | O=C(O)C1CCCN1Cc1ccc2onc(Nc3cccc(-c4ccccc4)c3Cl)c2c1 (racemic) | 0.0858 µM
11 | OC1CCN(Cc2ccc3onc(Nc4cccc(-c5ccc6c(c5)OCCO6)c4Cl)c3c2)C1 (racemic) | 1.28 µM
12 | O=C(O)[C@H](CO)NCc1ccc2onc(Nc3cccc(-c4ccccc4)c3Cl)c2c1 | 0.0268 µM
13 | O=C(O)C1CCN(Cc2ccc3onc(Nc4cccc(-c5ccccc5)c4Cl)c3c2)CC1 | 0.61 µM
14 | OCCNCc1ccc2onc(Nc3cccc(-c4ccccc4)c3Cl)c2c1 | 0.803 µM
15 | O=C(O)CNCc1ccc2c(Nc3cccc(-c4ccc5c(c4)OCCO5)c3Cl)noc2c1 | 0.383 µM
16 | COC(=O)[C@H](CO)NCc1ccc2onc(Nc3cccc(-c4ccccc4)c3Cl)c2c1 | 1.62 µM
17 | CC(=O)NCCNCc1ccc2c(Nc3cccc(-c4ccccc4)c3Cl)noc2c1 | 2.03 µM
18 | OC1CCN(Cc2ccc3c(Nc4cccc(-c5ccc6c(c5)OCCO6)c4Cl)noc3c2)C1 (racemic) | 1.68 µM
19 | O=C(O)C1CCN(Cc2ccc3onc(Nc4cccc(-c5ccccc5)c4Cl)c3c2)C1 (racemic) | 0.452 µM
20 | O=C(O)CNCc1ccc2onc(Nc3cccc(-c4ccccc4)c3Cl)c2c1 | 0.0305 µM
21 | O=C(O)C1CCCCN1Cc1ccc2onc(Nc3cccc(-c4ccccc4)c3Cl)c2c1 (racemic) | 0.0712 µM
22 | O=C(O)CNCc1ccc2c(Nc3cccc(-c4ccccc4)c3Cl)noc2c1 | 0.718 µM
23 | CC(=O)NCCNCc1ccc2c(Nc3cccc(-c4ccc5c(c4)OCCO5)c3Cl)noc2c1 | 0.834 µM
24 | OCCNCc1ccc2onc(Nc3cccc(-c4ccc5c(c4)OCCO5)c3Cl)c2c1 | 3.02 µM
25 | O=C(O)[C@H](CO)NCc1ccc2c(Nc3cccc(-c4ccc5c(c4)OCCO5)c3Cl)noc2c1 | 1.72 µM
26 | O=C(O)C1CCN1Cc1ccc2onc(Nc3cccc(-c4ccccc4)c3Cl)c2c1 (racemic) | 0.48 µM
27 | OCCNCc1ccc2c(Nc3cccc(-c4ccccc4)c3Cl)noc2c1 | 6.49 µM
28 | O=C(O)C1CN(Cc2ccc3onc(Nc4cccc(-c5ccccc5)c4Cl)c3c2)C1 | 0.364 µM
29 | O=C(O)[C@H](CO)NCc1ccc2onc(Nc3cccc(-c4ccc5c(c4)OCCO5)c3Cl)c2c1 | 0.0513 µM
30 | O=C(O)CNCc1ccc2onc(Nc3cccc(-c4ccc5c(c4)OCCO5)c3Cl)c2c1 | 0.0916 µM
31 | OCCNCc1ccc2c(Nc3cccc(-c4ccc5c(c4)OCCO5)c3Cl)noc2c1 | 0.756 µM
